Test results as given in patent publication EP2468280A1, “Use of prokineticin 1 receptor agonists to promote the differentiation of epicardin+ progenitor cells” (Université de Strasbourg, priority 2010, dated 2012).

Key:
[1] = test system: Coronary endothelial cells (H5V cells); experiment: In vitro angiogenesis, tube-like formation on Matrigel; assay type: cell-based; details: serum free medium, 24h
Description: Coronary endothelial cells (H5V cells) were maintained in DMEM supplemented with 10% heat inactivated Fetal Calf Serum (FCS), glutamine (1mM) under 5% CO2 at 37°C.
In order to evaluate the potential angiogenic activity of the non peptide PKR1 agonists, the test of Growth Factor Reduced Matrigel (GFR Matrigel) 24 well plate was performed. Matrigel leads to the differentiation of many cell types and induces the formation and organization of endothelial cells into capillary tubules. Twenty-four-well culture plates were coated with Matrigel and endothelial cells (H5V) were trypsin-harvested and seeded onto the coated plates at 10^5 cells per well in the serum free assay medium with PKR1 agonists, IS1 and prokineticin-2, and incubated at 37°C for 24h. Tube formation as two dimensional branched structures were observed using an inverted phase contrast microscope (Zeiss), and the number of branching points were quantified in per well from each sample. Each experiment was repeated at least three times. Images were captured at a magnification of X10 with a digital microscope camera system (Urayama K et al., 2007).

PKR1 = experiment: Measurement of intracellular calcium in CHO-K1-PKR1 cells (Fluo 4-AM, confocal microscope); assay type: cell-based; details: CHO-K1 cells infected with adenovirus carrying PKR1 cDNA, 48h after infection, 37°C
Description: CHO-K1 (Chinese Hamster Ovary) cells were infected with an adenovirus carrying PKR1 cDNA. Cells were then stimulated, 48h after infection, with or without IS1 agonists, at 37°C.
Calcium imaging was conducted essentially as previously described (Horinouchi et al., 2007) In brief, Intracellular free calcium [Ca^2+]i was measured with the fluorescent Ca^2+ indicator dye Fluo 4-AM, the membrane-permeant acetoxymethyl ester form of Fluo 4 (Invitrogen). Changes in [Ca^2+]i were determined from variations in the fluorescence intensity of Fluo 4-AM. Briefly, trypsinized CHO-K1-PKR1 cells were seeded onto glass bottom culture dishes (MatTek, MA, USA) for 24 h. […] The fluorescence in the cells was excited at a wavelength of 488 nm and a series of images (total exposure time: 300 s) were acquired at 0.5s intervals at emission wavelength 518 nm. Data are presented as the fluorescence intensity of 3 randomly chosen cells within a randomly selected 40× field. To evaluate the effect of IS1 compound on [Ca^2+]i in CHO-K-PKR1, the maximum change in fluorescence intensity upon addition of IS1 was measured and normalized to the baseline fluorescence obtained before IS 1 addition.

GFP-PKR1 = target: T1, GFP-PKR1 (Homo sapiens, UniProt Q8TCW9); experiment: PKR1 internalization in CHO-K1 cells transfected with GFP-PKR1; assay type: cell-based; details: CHO-K1 cells expressing GFP-PKR1, 48h after transfection, 37°C, 20 min imaging
T1 construct: expressed in transfected cells; host or cells: CHO-K1 cells, transient transfection with Lipofectamine2000
T1 sequence (Q8TCW9 whole entry): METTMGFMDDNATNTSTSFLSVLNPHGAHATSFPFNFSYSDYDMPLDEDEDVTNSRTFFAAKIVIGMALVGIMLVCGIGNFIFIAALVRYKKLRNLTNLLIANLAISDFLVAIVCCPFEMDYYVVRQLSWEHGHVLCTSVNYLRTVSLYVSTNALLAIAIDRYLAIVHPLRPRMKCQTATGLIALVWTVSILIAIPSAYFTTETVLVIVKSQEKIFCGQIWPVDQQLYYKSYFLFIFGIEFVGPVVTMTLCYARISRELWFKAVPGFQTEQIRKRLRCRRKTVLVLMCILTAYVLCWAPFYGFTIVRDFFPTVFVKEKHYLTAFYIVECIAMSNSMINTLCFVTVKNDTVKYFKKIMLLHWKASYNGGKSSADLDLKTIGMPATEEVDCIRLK
Description: The capacity of agonist compounds to induce internalization of PKR1 was assessed. Therefore, CHO-K1 cells transfected with a plasmid encoding GFP-PKR1 (Green Fluorescent Protein-PKR1), in the presence of Lipofectamine2000 (Invitrogen), were used. Cells were stimulated, 48h after transfection, with or without agonist compound, at 37°C. GFP is a fluorescent protein fusion (26.9 kDa) which has a major excitation peak at a wavelength of 396 nm and a minor one at 472 nm. Its emission peak is at 504 nm which is in the lower green portion of the visible spectrum. Fluorescence allowed tracking the localization of PKR1 after stimulation by the agonist (membrane or subcellular). Cells were seeded in glass-bottom coated with polyL-lysine and receptor studies were performed in the presence of various PKR1-ligands. Samples were observed under a Leica confocal microscope (SP2 AOBS MP) with objective 63× at 37°C. Images were automatically recorded during 20 min, with increasing time intervals to avoid bleaching effects because of repetitive scanning. Reconstituted videos contained 42 images and lasted 2 second.

cEPPC = experiment: Cardiomyocyte differentiation of cEPPC (contractility by time lapse microscopy, troponin immunostaining); assay type: cell-based, C57BL/B6 mice; details: beta adrenergic stimuli, isoproterenol 25 nM
Description: Hearts were removed from P1 neonate C57BL/B6 mice or PKR1 null mutant mice, cut into pieces (approximately 1 mm^3), rinsed in PBS to remove excess blood and plated onto 0.1 % gelatin petri dish in DMEM containing GlutaMax, 4.5 g /L glucose, penicillin, streptomycin and 15 % fetal calf serum. Cultures were maintained with minimum disturbance to allow explants to adhere. All cells were maintained at 37°C in a humidified air 5% CO2 atmosphere. After 4 days explants were removed and cells were gently washed and fresh medium with DMEM containing GlutaMax, 4.5 g /L glucose, penicillin, streptomycin and 10 % fetal calf serum serum was added. The cells were cultured during 10 days and trypsinized for experimentation.
For cardiomyogenesis, cells were plated at 2x10^4 onto 1% gelatin coated culture chamber in DMEM containing GlutaMax, 4.5 g /L glucose, penicillin, streptomycin and 10 % fetal calf serum. The cells were maintained in culture during six days and medium were change every 2 days. After 6 days, cardiomyocyte differentiation can be induced using culture medium supplemented with 1µM dexamethasone, 50µg/ml ascorbic acid, 10mM glycerophosphate without or with 10 nM of prokineticin-2. The medium was change every 2 days during 36 days. […]
Cells were fixed in 3,7% formaldehyde at 4°C 1 hours. […] The immunofluorescence was detected by Leica TCSNT fluorescent microscope.

SMILES	in vitro angiogenesis (tube-like formation of the endothelial cells on Matrigel) [1]	activation of PKR1 signalling pathway (intracellular calcium release) (PKR1)	PKR1 internalization (GFP-PKR1)	beating frequence of cardiomyocytes induced from cEPPC (cEPPC)
O=C(NCc1cccnc1)/C(=C\c1ccco1)NC(=O)c1ccccc1 [IS1]	Induction of in vitro angiogenesis	able to activate the PKR1 signalling pathway	specifically interacts with PKR1 and induces its internalization	–
CC(C)NCC(O)c1ccc(O)c(O)c1 (stereo not shown) [isoproterenol, Isoproterenol]	–	–	–	beating frequence is increased
